Experimental data: US12234240B2, “Substituted imidazo[5,1-d][1,2,3,5]tetrazines for the treatment of cancer” (The Board of Trustees of the University of Illinois, priority 2018, dated 2025)
Like-named read-outs stand apart in the source and are kept apart here.

What was measured:
physchem = details: buffered saline (PBS), pH 7.4
Method: Hydrolytic stability of C8 substituted imidazotetrazines. […] A HPLC assay was developed to quantify the fraction of intact prodrug remaining in solution after 2 hours at pH 7.4, 37° C.

T98G cells [1] = assay: Cell viability, Alamar Blue, 7-day incubation, T98G; assay type: cell-based; details: Homo sapiens, 168 h, MGMT +, error SEM
Method: (§1) Anticancer activity of C8 substituted imidazotetrazines. With a suite of imidazotetrazines in hand, each compound was evaluated against a panel of human GBM cell lines (Table 1a, Table 1b).

[2] = tested on: GBM Br23c oncospheres intracranially implanted; assay: Intracranial mouse model of GBM (Br23c oncospheres); assay type: in vivo; details: oral gavage, 15 mg/kg TMZ or equimolar dose
Excerpt: FIG. 5. Evaluation of imidazotetrazines in intracranial mouse models of GBM. GBM Br23c oncospheres were intracranially implanted into female athymic nude mice. Treatment was started 5 days post implantation. […] Compounds were formulated in 10% PEG in PBS immediately prior to each treatment. Number of mice per treatment cohort≥5. Survival curves were compared using log-rank test.
in vivo Efficacy Models. Human GBM Br23c stem-like neurosphere cells were intracranially implanted in female athymic nude mice (150,000 cells/mouse). […] Mice were observed daily for any signs of deterioration, neurotoxicity, or movement disorders. They were inspected for signs of pain and distress, as in accordance with the Johns Hopkins Animal Care and Use Guidelines.

D54 cells = assay: Cell viability, Alamar Blue, 7-day incubation, D54; assay type: cell-based; details: Homo sapiens, D54, 168 h, MGMT −, error SEM
Method: as §1

U87 cells = assay: Cell viability, Alamar Blue, 7-day incubation, U87; assay type: cell-based; details: Homo sapiens, U-87 MG, 168 h, MGMT −, error SEM
Method: as §1

[3] = cited from earlier work
human GBM cell lines = assay: Viability in panel of human GBM cell lines; assay type: cell-based
Method: as §1

[4] = Assessment of hematological toxicity in vivo; details: mice
Method: Assessment of hematological toxicity. […] Both lymphocyte (FIG. 3b) and neutrophil (FIG. 8a) concentrations were decreased in TMZ-treated mice. […] Total WBC, lymphocyte, and neutrophil counts for mice treated with these compounds were equivalent to those of control mice.
Assessment of Hematological Toxicity. Male CD-1 IGS mice (n=4 mice/group) were administered a single dose of 125 mg/kg compound intravenously. Imidazotetrazines were formulated with SBEβCD in sterile water immediately prior to injection. Seven days post-treatment, mice were humanely sacrificed and whole blood was collected for assessment of total white blood cells, lymphocytes, neutrophils, platelets, and red blood cells.

[5] = tested on: Br23c GBM oncosphere cell line; assay: Cell viability, Alamar Blue, 7-day, Br23c GBM oncosphere line; assay type: cell-based; details: Homo sapiens, 168 h, error SEM, read-out: 7-day IC50 MGMT − Br23C
[6] = Stability in the absence of microsomes (microsomes replaced with PBS); assay type: physicochemical; details: liver microsomes replaced with PBS, percentage remaining relative to t0
Method: (§2) Liver microsome stability.
(§3) Mouse Liver Microsome Stability Assay. A mixture of PBS (pH 7.4), NADPH regenerating system solution A (Corning Life Sciences), and NADPH regenerating system solution B (Corning Life Sciences) was incubated at 37° C. in a shaking incubator for 5 min. Next, compound was added in DMSO (final concentration 50 μM, 0.5% DMSO) before ice-cold mouse liver microsomes (Thermo Fisher, male CD-1 mice, pooled) were added (final protein concentration of 1 mg/mL). An aliquot was immediately removed, quenched with an equal volume of 100 μM internal standard and 0.5% hydrochloric acid in ice-cold acetonitrile, and centrifuged at 13,000 rcf for 3 min. The supernatant was diluted 1:5 in ddH2O and analyzed by LC-MS. The reactions were incubated at 37° C. in a shaking incubator for 2 h. A second aliquot was removed, quenched and diluted as before and analyzed by LC-MS. The ratio of the areas of analyte:internal standard at 2 hours was compared to the ratio at t0 to determine the percentage of compound remaining. Analysis was performed on an Agilent 6230 LC/MS TOF system with a 1.8 μm, 2.1×50 mm Agilent ZORBAX Eclipse Plus C18 column.

glioblastoma = details: cited from earlier work
[7] = Mouse liver microsome stability assay; assay type: in vitro ADME
Method: as §2, §3

genomic DNA of U87 cells = assay: O6-methyldeoxyguanosine quantitation in U87 cells; assay type: cell-based, human; details: 100 or 1000 μM, 8 hours
Method: Novel imidazotetrazines induce alkylation-mediated cancer cell death. […] After 8 hours of incubation with compound, the genomic DNA was isolated, quantified, and hydrolyzed to its constituent deoxyribonucleosides, which were quantitated via LC-MS/MS analysis. […] Further confirmation that the novel compounds remain DNA alkylators was obtained upon pre-treatment with MGMT inhibitor O^6-benzylguanine (O6BG). O6BG is a pseudosubstrate for MGMT that quenches cellular stores of the enzyme, leading to the persistence of O^6-methylguanine DNA adducts.
O^6-Methyldeoxyguanosine Quantitation. U87 cells were plated at 1×10^6 c/w in a 6-well plate before they were treated with compound at the indicated concentration (1% final concentration DMSO). After 8 h incubation, the cells were harvested and pelleted. Genomic DNA was extracted using the DNeasy Blood & Tissue Kit (Qiagen, ID: 69504). DNA was then precipitated using the following procedure: 1/10 v/v 3M sodium acetate (pH 5.2) and 2.5× v/v ethanol was added to each sample which was then kept at −80° C. for 1 h. […] The concentration of DNA in each sample was quantified measuring absorbance on a NanoDrop 2000 UV-Vis Spectrophotometer (Thermo Fisher). […] Hydrolyzed samples were then submitted for LC-MS/MS quantitation. Samples were analyzed with a 5500 QTRAP LC/MS/MS system (AB Sciex) with a 1200 series HPLC system (Agilent).

T98G cells [8] = assay: cells; assay type: cell-based
Method: FIG. 4. Imidazotetrazines were added to T98G cells with or without 3 h pre-treatment of O6BG (100 μM). IC50 values after 7-day incubation and fold changes between (+/−) O6BG treatments are reported. […] Error is SEM, n≥3. Statistical significance was determined by using a two-sample Student's t-test (two-tailed test, assuming equal variance).

[9] = Table 1a, 7 days, read-out: IC50 T98G
[10] = Table 1a, 7 days, read-out: IC50 D54
[11] = Table 1a, 7 days, n ≥ 3, read-out: IC50 U87

Structure (SMILES): Cc1ncn2c(=O)n(C)nnc12 [Compound 14, 3,8-dimethylimidazo[5,1-d][1,2,3,5]tetrazin-4(3H)-one]
- half-life (physchem): 40 h
- IC50 (T98G cells [1]; [9]): 6 ± 1 µM
- effect on survival in words [2]: no effect
- IC50 (D54 cells; [10]): 6 ± 3 µM
- IC50 (U87 cells; [11]): 3 ± 1 µM

Structure (SMILES): Cn1nnc2c(C(N)=O)ncn2c1=O [TMZ, temozolomide, reference compound]
- IC50 (T98G cells [1]; [9]): 660 ± 10 µM
- IC50 (T98G cells [1]; Table 1b, read-out: 7-day IC50 T98G): 660 ± 10 µM
- effect on survival in words [2]: significantly increased median survival compared with vehicle
- cerebral spinal fluid concentrations as percent of those in the plasma ([3]; humans): 20%
- half-life ([3]; in vivo and in aqueous solutions in vitro): ~2 h
- IC50 (human GBM cell lines; GBM cell lines with negligible MGMT expression, read-out: IC50 in cell lines with negligible MGMT expression): ≤ 50 µM
- IC50 (human GBM cell lines; GBM cell lines with significant MGMT expression, read-out: IC50 in cell lines with significant MGMT expression): > 300 µM
- Cohort weight 7 days Post ([4]; 7 days after single IV dose of 125 mg/kg, error SEM, 4 mice): 32 ± 1 g
- Cohort weight Pre-treatment ([4]; prior to single IV dose of 125 mg/kg, error SEM, 4 mice): 31 ± 1 g
- myelosuppression / white blood cell effect ([4]; single IV dose 125 mg/kg, complete blood count after 7 days): white blood cell (WBC) depletion
- IC50 [5]: 5.2 ± 0.2 µM
- Stability (2 h, No Microsomes) [6]: 86 ± 4%
- IC50 (D54 cells; [10]): 12 ± 1 µM
- IC50 (D54 cells; Table 1b, read-out: 7-day IC50 D54): 12 ± 1 µM
- myelotoxicity incidence in treated patients (glioblastoma; TMZ-treated patients): ~20%
- median survival (glioblastoma; patients whose tumors do not express MGMT): approximately two
- Stability (2 h, Microsomes) ([7]; 2 h, percentage remaining relative to t0, error SEM, n ≥ 2): 87 ± 6%
- metabolic stability in words ([7]; mouse liver microsomes, 2 hours): insensitive to metabolic perturbation
- concentration of O6-methylated deoxyguanosine (genomic DNA of U87 cells): Dose dependent increases
- IC50 (T98G cells [8]; Homo sapiens, 168 h, without O6BG, 7-day incubation): 660 ± 10 µM
- enhancement in cytotoxicity after O6BG pre-incubation (T98G cells [8]; O6BG 100 μM): eight-fold
- IC50 (U87 cells; [11]): 51 ± 8 µM
- IC50 (U87 cells; Table 1b, read-out: 7-day IC50 U87): 51 ± 8 µM
